How the values were obtained:
E. polygoni = assay: In-vivo greenhouse control of marrow bean powdery mildew
Protocol: (§1) 3.88 g of 3-(3',4'-methylenedioxy phenyl)-N-n-propyl acrylamide was weighed and dissolved in 25 g of absolute ethyl alcohol, then 6 g of emulsifier 0203B was added, and mixed uniformly with stirring to get 10% of 3-(3',4'-methylenedioxy phenyl)-N-n-propyl acrylamide EC.
(§2) 5.61 g of 3-(3',4'-methylenedioxy phenyl)-piperidine acrylate was weighed and dissolved in 25 g of absolute ethyl alcohol, then 6 g of emulsifier 0203B was added, and mixed uniformly with stirring to get 14% of 3-(3',4'-methylenedioxy phenyl)-piperidine acrylate EC.
Marrow bean (Variety: Thailand Jiadouwang) was cultured in pots in a greenhouse, and inoculated with E. polygoni at the stage of 4 leaves. The first application was started at the early onset (onset at the first true leaf: first appearance of spots), comprising 10% of 3-(3',4'-methylenedioxy phenyl)-N-n-propyl acrylamide EC and 14% of 3-(3',4'-methylenedioxy phenyl)-piperidine acrylate EC, which were both diluted at three concentrations of 0.20, 0.143, 0.10 mg/mL (active ingredients), the control agent, 12.5% of myclobutanil EC (North China pharmaceutical Group, Ainuo Co. Ltd.), was also diluted at three concentrations of 0.20, 0.143, 0.10 mg/mL (active ingredients), additionally clear water was used as the control. Both sides of the leaves were sprayed evenly with a small hand-held sprayer so that the leaves were wetted by the liquor without loss. Applications were conducted every 7 days consecutively for 4 times. 10 days after the fourth application, the number of sick leaves at each grade of powdery mildew was investigated for the whole plant following the grading standard of 9 grades, to calculate the disease index and the control effect.

[1] = test system: Blumeria graminis f.sp.tritici; assay: In-vivo greenhouse control of wheat powdery mildew; conditions: winter wheat, 0.20 mg/mL (active ingredients), application from early onset
Protocol: as §1, §2
Winter wheat (Variety: Huixian Red) was sown in pots in a greenhouse, and inoculated with a fresh spore suspension of Blumeria graminis f.sp.tritici by spraying on its leaves and stems at the stage of 2 leaves. The first application was started at the early onset of powdery mildew. Both sides of the leaves were sprayed evenly with a small hand-held sprayer so that the leaves were wetted by the liquor without loss. 10% of 3-(3',4'-methylenedioxy phenyl)-N-n-propyl acrylamide EC and 14% of 3-(3',4'-methylenedioxy phenyl)-piperidine acrylate EC were both diluted at two concentrations of 0.20 and 0.143 mg/mL (active ingredients), and the control agent, 15% of triazolone WP, was also diluted at two concentrations of 0.20 and 0.143 mg/mL (active ingredients), additionally clear water was used as the control. […]

Phytophthora infestans = assay type: cell-based; conditions: Phytophthora infestas; 1 mg/mL
zucchini powdery mildew = assay: Field efficiency test, zucchini powdery mildew; assay type: in vivo; conditions: 0.50 mg/mL (active ingredients)
From the text: (§3) The formulation of emulsifiable concentrate is the same as that in Embodiment 3.
The variety of zucchini was Zaoqing F1 (manufactured by Wuwei Dadi Seed Industry Co., Ltd.), which was sown on July 29th, 2016. The first application was started on August 26th, at the early onset of powdery mildew (the average disease index is 10.07). The instrument for application was Agrolex HD 400 Model hand operating knapsack sprayer, which employed a cone nozzle. Each agent was formulated into the desired concentrations according to the usage amount of the control clear water. Both sides of the leaves were sprayed evenly so that the leaves were wetted by the liquor without loss. 10% of 3-(3',4'-methylenedioxy phenyl)-N-n-propyl acrylamide EC and 14% of 3-(3',4'-methylenedioxy phenyl)-piperidine acrylate EC were both diluted at a concentration of 0.50 mg/mL (active ingredients); the control agent, 430 g/L of tebuconazole SC (manufactured by Yantai Keda Chemical Co., Ltd.) was also diluted at a concentration of 0.50 mg/mL (active ingredients); additionally clear water was used as the control. Thereafter, applications were conducted every 7 days consecutively for 4 times. 10 days after the last application, the number of sick leaves at each grade of powdery mildew was investigated for the whole plant following the grading standard of 9 grades, to calculate the disease index and the control effect.

F. graminearum = assay: microbe, parasite or virus in culture; assay type: cell-based; conditions: for Average Diameter of the Colony: F. graminearum, 1 mg/mL; for inhibition at 1000 µg/mL: Fusarium graminearum, read-out: Inhibition Rate
Pyricularia grisea = assay: microbe, parasite or virus in culture; assay type: cell-based; conditions: for Average Diameter of the Colony: 1 mg/mL; for inhibition at 1000 µg/mL: read-out: Inhibition Rate
Fusarium graminearum = assay: microbe, parasite or virus in culture; assay type: cell-based; conditions: for Average Diameter of the Colony: 1 mg/mL; for inhibition at 1000 µg/mL: read-out: Inhibition Rate
E. cichoracearum = assay: Field efficiency test, cucumber powdery mildew; assay type: in vivo; conditions: 0.50 mg/mL (active ingredients)
Protocol: as §3
10% of 3-(3',4'-methylenedioxy phenyl)-N-n-propyl acrylamide EC and 14% of 3-(3',4'-methylenedioxy phenyl)-piperidine acrylate EC were diluted at a concentration of 0.50 mg/mL (2000 fold liquid of active ingredients); the control agent, 10% of dimethomorph EW, was also diluted at a concentration of 0.50 mg/mL (2000 fold liquid of active ingredients); the control agent, 80% of mancozeb WP, was diluted at a concentration into a 500 fold liquid according to the usage amount of the formulation; the control agents, 12.5% of myclobutanil EC, 25% of propiconazole EC, 430 g/L of tebuconazole SC, 10% of hexaconazole EC and 37% of difenoconazole EC were all diluted at a concentration into 1500 fold liquids according to the usage amount of the formulation; additionally clear water was used as the control. The first application was started on June 15th, and E. cichoracearum was inoculated on June 17th (the sick leaves were harvested from the solar greenhouse near the military airfield at Xiaguanying town, Yuzhong County, moisturized in the greenhouse for 2 days, then shreded, and filtered over a gauze, the filtrate was sprayed onto both sides of the cucumber leaves with the cone nozzle of an electric sprayer for inoculation). […]

[2] = 0.10 mg/mL (active ingredients)
[3] = 0.143 mg/mL (active ingredients)
[4] = 0.20 mg/mL (active ingredients)

SMILES	Control Effect (E. polygoni; [2])	Control Effect (E. polygoni; [3])	Control Effect (E. polygoni; [4])	Control Effect [1]	Average Diameter of the Colony (Phytophthora infestans)	Control Effect (zucchini powdery mildew)	Average Diameter of the Colony (F. graminearum)	inhibition at 1000 µg/mL (F. graminearum)	Average Diameter of the Colony (Pyricularia grisea)	inhibition at 1000 µg/mL (Pyricularia grisea)	Average Diameter of the Colony (Fusarium graminearum)	inhibition at 1000 µg/mL (Fusarium graminearum)	Control Effect (E. cichoracearum)
CCCNC(=O)/C=C/c1ccc2c(c1)OCO2 [3-(3',4'-methylenedioxyphenyl)-N-n-propyl acrylamide]	84.19%	92.58%	93.53%	86.97%	2.05 cm	60.24%	3.49 cm	59.4%	5.30 cm	41.1%	2.27 cm	57.6%	88.38%
O=C(/C=C/c1ccc2c(c1)OCO2)N1CCCCC1 [3-(3',4'-methylenedioxyphenyl)-piperidine acrylate]	74.97%	89.40%	91.55%	59.11%	0.81 cm	30.04%	0.00 cm	100%	1.60 cm	82.2%	0.53 cm	90.1%	69.84%
